Source: US11357783B2 (CAREGEN CO., LTD., priority 2016, dated 2022)

Assays:
[1] = Solubility test in distilled water; assay type: physicochemical; settings: 10 mg/ml
5α reductase = assay: Effect on 5α reductase activity: testosterone reacted with liver cell extracts, testosterone and DHT by HPLC; assay type: biochemical; settings: 1 hour at 37° C.
Procedure: The reactant of putting the liver cell extracts in testosterone and reacting it for 1 hour at 37° C. is the control. After the reaction is completed, the amount of testosterone and DHT were confirmed through HPLC. The HPLC analysis was carried out under the following conditions. • C18 column • UV 240 nm • flow rate: 1 mi/minute • mobile phase: A: 0.1% Formic acid in water • B: 0.1% Formic acid in acetonitrile • gradient: 0 min B 5%˜30 min B 80%

With `CC(C)(C)NC(=O)[C@H]1CC[C@H]2[C@@H]3CC[C@H]4NC(=O)C=C[C@]4(C)[C@H]3CC[C@]12C` [finasteride, N-(1,1-dimethylethyl)-3-oxo-(5α,17β)-4-azaandrost-1-ene-17-carboxamide] the solubility in water [1] was “hardly dissolved in water”, the “concentration of DHT compared with the control” value (5α reductase) was “decreased” and the “concentration of testosterone compared with the control” value (5α reductase) was “increased”.
